{"source": "patent US20140350092A1", "about": "“METHOD FOR […] VIRUS INFECTION” (Natura Corporation, priority 2003, published 2014)", "key": {"Japan cedar pollen [1]": {"system": "Japan cedar pollen", "assay": "Assay of pollen enclosure (pollen rouleaux formation / pollen aggregation)", "method": "In order to assay the actions of pectin and nucleic acid, contained in the contact preventive biological preparation of the present invention, on pollen, the following experiments were carried out. In the following experiments, by “pollen rouleaux formation” is meant a state in which a plurality of pollen particles continue linearly, and by “pollen aggregation” is meant a state in which a plurality of pollen particles constitute a bulk. Both “pollen rouleaux formation” and “pollen aggregation” denote a state in which pollen particles are captured by a medium and their free movement is inhibited, and as the degree thereof increases, the power of enclosing pollen increases.\nJapan cedar pollen was put in a first water solution containing pectin (#168-00555 by Wako Pure Chemical Industries, Ltd.), in a second water solution containing glycerin, in a third water solution containing pectin and glycerin, and in a fourth water solution containing DNA (DN-JA0904, DK-JB0218 by Daiwa Fine Chemical Co. Ltd.), RNA (R6625 by Sigma), amino acid, and glycerin, and these water solutions were subjected to incubation for ten minutes at room temperature to prepare pollen developed liquids.\nEach pollen developed liquid was instilled in the form of a drop onto a slide glass and was allowed to stand. After being dried, the test sample was stained by means of a ruthenium red solution and a gentian violet alcohol solution, and the assay of pollen rouleaux formation was examined microscopically.\nIn order to comparatively examine the actions of enclosing pollen by pectins, uronic acid-containing substances, and mucopolysaccharides according to the present invention, the following twelve kinds of samples were examined in the same way as the first exemplary embodiment. The twelve samples were: YM115-H; LM101-AS; Type DF; SLENDID type 100; SLENDID type 200; LM104AS-FS; LM-SCS; USP-H; USP-L; LH-105AS; AS Confectionary; and YM150-LJ by Genu."}, "[2]": {"details": "after ingestion versus before ingestion; cited from earlier work"}, "[3]": {"system": "neuraminidase of the type A influenza virus", "assay": "enzymatic activity of influenza-virus neuraminidase (synthetic coloring substrate)", "format": "biochemical", "method": "The activity of neuraminidase of the type A influenza virus was analyzed by an enzymic reaction with a synthetic coloring substrate (Gene Stat Flu Kit by Nichirei). This enzymic reaction is based on the power of neuraminidase to cut acetyl neuraminic, and darker solution's blue-coloring result indicates higher enzymatic activity.\nA virus test body, taken from the larynx of a type A influenza infected patient, was divided into two sample pieces, i.e., a control sample and a sample used for the evaluation of the anti-enzyme activity of pectins."}, "[4]": {"system": "pollenosis sufferer's white blood cells", "assay": "in vitro cluster formation by pollenosis sufferer's white blood cells and pollen", "format": "cell-based, human", "details": "pollen dispersed in 0.3% pectin water solution", "method": "White blood cells separated from the blood of a pollenosis sufferer was subjected to incubation on a slide glass with cedar pollen fixed thereonto."}, "[5]": {"system": "basophiles in the blood of a pollenosis sufferer", "assay": "emission of histamine from basophiles in the blood of a pollenosis sufferer", "format": "cell-based, human", "method": "Blood sampling from a pollenosis sufferer was carried out, and basophiles recognized by a cell surface marker were separated by means of a magnet method. Then, the basophiles thus separated were exposed to a pollen extraction component fixed onto a micro plate, and emitted histamine was quantitatively measured by an absorbance method through a coloring reaction making use of antihistamic antibodies (HRT by Shionogi & Co., Ltd.).\nA control sample making use of only a buffering solution, a sample comprising a pectin-containing buffering solution, and a nucleic acid-containing sample were prepared, and the rate of liberation of histamine with respect to the increase of allergen was comparatively examined. In the experiment, a cedar pollen extraction antigen was used as an allergen."}, "[6]": {"assay": "Application testing of eyedrop and nosedrop biological preparations on pollenosis sufferer", "format": "in vivo, human", "method": "The contact preventive biological preparation according to the present invention was applied to eyedrop and nosedrop biological preparations and their application tests were carried out on test subjects. These eyedrop and nosedrop biological preparations according to the present exemplary embodiment contain therein pectin (type DF et cetera by Genu) and DNA (Daiwa Fine Chemical Co. Ltd.) at the following contents.\nThe content of pectin and the content of DNA are: pectin (0.03 to 1.0%); DNA (0.05 to 1.0%); 0.5% pectin+0.5% DNA; 0.8% pectin+0.2% DNA; and 0.2% pectin+0.8% DNA.\nPollenosis sufferers were test subjects, and the degree of improvement in itching symptom when each eyedrop biological preparation was administrated at the time of the development of an allergic reaction and its duration and application (use) feeling (the degree of uncomfortable feeling) were examined. The results thus obtained were evaluated according to the following evaluation standards."}, "[7]": {"assay": "Comparison in action with commercially available eyedrop and nosedrop biological preparations", "design": "species or system human", "details": "in vivo", "source_text": "Conventional, commercially available eyedrop and nosedrop biological preparations against pollenosis symptoms were compared with the biological preparations according to the present invention in the action with respect to the manifestation of pollenosis symptoms.\nThe commercially available nosedrop biological preparations contain a vasopressor agent, an antihistamic agent, a bactericidal substance, a fragrant material et cetera."}, "Japan cedar pollen [8]": {"system": "Japan cedar pollen", "assay": "Assay of pollen enclosure (pollen rouleaux formation / pollen aggregation)", "details": "in biological preparations (artificial tears, nose spray, mouth washer) and drug solutions"}}}
{"compound": "OB(O)O", "note": "[boric acid]", "values": [{"measurement": "effect on pollen aggregation / dispersion", "setting": "Japan cedar pollen [1]", "value": "promoted the aggregation of pollen"}, {"measurement": "pollen burst", "setting": "Japan cedar pollen [1]", "value": "causing pollen to burst"}]}
{"compound": "N[C@@H](CCC(=O)O)C(=O)O", "note": "[glutamic acid]", "values": [{"measurement": "effect of additive on the pollen enclosing action of pectin", "setting": "Japan cedar pollen [1]", "value": "reinforce the action of enclosing pollen by pectin"}]}
{"compound": "OC[C@H]1O[C@H](O[C@H]2O[C@H](CO)[C@@H](O)[C@H](O)[C@H]2O)[C@H](O)[C@@H](O)[C@@H]1O", "note": "[trehalose]", "values": [{"measurement": "effect of additive on the pollen enclosing action of pectin", "setting": "Japan cedar pollen [1]", "value": "reinforced"}]}
{"compound": "apple pectin", "values": [{"measurement": "drop of concentration of histamine in the blood", "setting": "[2]", "value": 24, "unit": "%"}]}
{"compound": "carboxymethyl cellulose", "values": [{"measurement": "effect of additive on the pollen enclosing action of pectin", "setting": "Japan cedar pollen [1]", "value": "reinforced"}]}
{"compound": "carrageenan [carrageenan (K-100J), reference compound]", "values": [{"measurement": "pollen enclosing power", "setting": "Japan cedar pollen [1]; comparison of samples, same way as first exemplary embodiment", "value": "less significant in pollen enclosing power than the others"}]}
{"compound": "cluster dextrin", "values": [{"measurement": "effect of additive on the pollen enclosing action of pectin", "setting": "Japan cedar pollen [1]", "value": "reinforced"}]}
{"compound": "heparin [reference compound]", "values": [{"measurement": "neuraminidase enzymatic activity (blue color reaction)", "setting": "[3]; heparin 20 unit/ml", "value": "color exhibition of blue coloring became dull"}]}
{"compound": "methyl cellulose", "values": [{"measurement": "effect of additive on the pollen enclosing action of pectin", "setting": "Japan cedar pollen [1]", "value": "reinforced"}]}
{"compound": "pectin", "values": [{"measurement": "pollen rouleaux formation", "setting": "Japan cedar pollen [1]; no pectin or pectin at a low concentration of less than 0.3%", "value": "no rouleaux capture of cedar pollen was detected"}, {"measurement": "pollen rouleaux formation", "setting": "Japan cedar pollen [1]; pectin from about 0.03 to about 3.0%", "value": "pollen rouleaux formation was promoted"}, {"measurement": "accumulation of white blood cells on pollen", "setting": "[4]", "value": "no tendency to accumulate on pollen"}, {"measurement": "effect of preventing the liberation of histamine", "setting": "[5]; 0.03% pectin alone, FIG. 2", "value": "impossible for a 0.03% pectin-containing sample alone to provide a satisfactory effect"}, {"measurement": "liberation of histamine from basophiles", "setting": "[5]; 0.03% pectin, cedar pollen extraction antigen, FIG. 1", "value": "inhibited over a wide range"}, {"measurement": "liberation of histamine from basophiles", "setting": "[5]; pectin about 0.1% to about 0.3%, high-concentration cedar pollen", "value": "inhibited"}, {"measurement": "neuraminidase enzymatic activity (blue color reaction)", "setting": "[3]; 0.05% pectin (USD-H by Genu)", "value": "no color reaction was observed"}, {"measurement": "curative properties against the symptoms", "setting": "[6]; eyedrop, FIG. 3, 0.5% pectin or 0.5% DNA", "value": "obvious curative properties against the symptoms"}, {"measurement": "application feeling", "setting": "[6]; eyedrops of a pectin concentration of 0.5% or more", "value": "caused a sticky feeling"}, {"measurement": "curative properties against pollenosis symptoms (itching and snuffles)", "setting": "[6]; pectin from 0.03 to 1%, used alone", "value": "curative properties against pollenosis symptoms"}, {"measurement": "irritation / sensation on application", "setting": "[7]", "value": "felling of drying"}, {"measurement": "pollen enclosing function of pectin in presence of other components", "setting": "Japan cedar pollen [8]", "value": "exerted satisfactorily without any interference"}]}
